{"source": "patent US20250302784A1", "about": "“MYOBLAST PROLIFERATION PROMOTER AND MYOBLAST-PROLIFERATION PROMOTING COMPOSITION, AND MUSCLE ATROPHY INHIBITOR AND MUSCLE-ATROPHY INHIBITING COMPOSITION” (MARUZEN PHARMACEUTICALS CO., LTD., priority 2022, published 2025)", "key": {"[1]": {"test_system": "skeletal muscle-derived myoblasts (C2C12) of mice", "assay": "Test for myoblast-proliferation promotion effect (MTT assay)", "format": "cell-based", "details": "for Myoblast proliferation promotion rate (%): cultured 2 days, MTT, rate = A/B×100 vs cells without test sample", "procedure": "A test on a myoblast proliferation effect of the compound represented by Structural Formula (1) (using the compound available from Sigma-Aldrich) was performed according to the following testing method.\nAfter culturing skeletal muscle-derived myoblasts (C2C12) of mice in a Dulbecco's modified eagle medium (DMEM) containing 10% FBS, the cells were collected by trypsinization. The collected cells were diluted with a 5% FBS-containing DMEM so that a concentration of the cells was to be 2.0×10^4 cells/mL. Then, the dilution was seeded by 100 μL per well in a 96-well plate, followed by culturing for 6 hours. After completing the culture, a test sample dissolved in a 5% FBS-containing DMEM (see Table 1 below for the final concentration) was added by 100 μL per well, followed by culturing for 2 days. Even in the case where the test sample was not added, culturing was performed in the same manner except that the test sample was not added.\nThe myoblast-proliferation promotion effect was measured using an MTT assay. After completing the culture, the medium was removed, and MTT dissolved in a PBS buffer solution (PBS(−)) at a final concentration of 0.4 mg/mL was added by 100 μL per well. After culturing for 2 hours, blue formazan generated within the cells was extracted with 100 μL of 2-propanol. After the extraction, absorbance at a wavelength of 570 nm was measured. In addition, absorbance at a wavelength of 650 nm was measured as turbidity. The difference between the absorbance at the wavelength of 570 nm and the absorbance at the wavelength of 650 nm was used to determine an amount of blue formazan generated.\nThe myoblast proliferation promotion rate (%) was calculated from the obtained results according to the following equation.\nMyoblast proliferation promotion rate (%)=A/B×100\nIn the equation above, A and B are as follows. • A: An amount of blue formazan generated in the cells to which the test sample was added. • B: An amount of blue formazan generated in the cells to which the test sample was not added."}, "[2]": {"test_system": "rat model of disuse muscle atrophy", "assay": "Test for muscle atrophy inhibition effect in rat model of disuse muscle atrophy (hindlimb suspension)", "format": "in vivo, Wistar rats", "procedure": "Whether muscle atrophy was inhibited by orally administering the compound represented by Structural Formula (1) (using the compound available from Cayman Chemical) to a rat model of disuse muscle atrophy for 14 days was tested according to the following testing method.\nSeven week-old male Wistar (Crlj: WI) rats were acquired from Charles River Laboratories Japan, Inc., and were bred in the environment where a temperature was 23±3° C. and the humidity was 55±15% and in a cycle of 12 hours in light and 12 hours in dark. The rats were acclimated for one week before use, and were allowed to freely intake a solid feed (CRF-1, available from Oriental Yeast Co., Ltd.) and tap water.\nAfter one week of acclimation, the Wistar rats were randomly divided into groups of eight. The rats were bred for 14 days in the state where the tail of each rat was held with clips so that the rat's hind legs were raised above the floor according to the method of Morey-Holton E R et al. During the breeding period, the rats were allowed to move around within a case with their forelimbs, and were allowed to freely intake water and a feed.\nThe test groups were (1) a normal group (without hindlimb suspension), (2) a control group (hindlimb suspension+0 mg/kg of the compound represented by Structural Formula (1)), (3) a group with the compound represented by Structural Formula (1) (hindlimb suspension+125 mg/kg of the compound represented by Structural Formula (1)).\nThe compound represented by Structural Formula (1) was dissolved in water, and the solution was administered by oral gavage every day for 14 days. Water was administered to the control group.\nAt the end of the test, the rats were euthanized by exsanguination under isoflurane anesthesia. Then, the soleus muscles were removed and the muscle weight was measured. In Table 2, the soleus muscle weight is an average value."}}, "data": [{"smiles": "O=C(O)CCc1ccc(O)c(O)c1", "note": "[3,4-dihydroxyhydrocinnamic acid]", "values": [{"measurement": "Myoblast-proliferation promotion effect (in words)", "setting": "[1]; conclusion from Table 1", "value": "excellent myoblast-proliferation promotion effect"}, {"measurement": "Myoblast proliferation promotion rate (%)", "setting": "[1]; test sample 25 μmol/L", "value": 106.4, "unit": "%"}, {"measurement": "Myoblast proliferation promotion rate (%)", "setting": "[1]; test sample 100 μmol/L", "value": 108.0, "unit": "%"}, {"measurement": "Soleus muscle weight", "setting": "[2]; hindlimb-suspended male Wistar rats, 125 mg/kg oral gavage daily for 14 days, average value (normal group 359.1, control group 139.3)", "value": 151.3}, {"measurement": "Soleus muscle weight compared to the control group (in words)", "setting": "[2]; hindlimb-suspended rats, 125 mg/kg oral, 14 days", "value": "increased compared to the control group"}, {"measurement": "Muscle atrophy inhibition (in words)", "setting": "[2]; rat model of disuse muscle atrophy, 125 mg/kg oral, 14 days", "value": "inhibited muscle atrophy"}]}]}
